# Results reported in patent US20240382506A1, “Means and Methods to Regulate Gut Dysbiosis” (VIB VZW, priority 2021, published 2024).
# Experiments:
# [1] = target: membrane pannexin-1 channels (Homo sapiens, UniProt Q96RD7); details: described in literature; cited from earlier work
# Salmonella [2] = experiment: Salmonella growth in CT26 cell supernatants; assay type: cell-based, Salmonella enterica serovar Typhimurium
# Protocol: (§1) All mammalian cells were cultured at 5×10^5 cells per ml. Cells were washed with 1× PBS before induction of cell death in the indicated medium. Jurkat cells were cultured in suspension at 5×10^5 cells/ml. After induction of cell death, supernatant was collected and spun at 330 rcf for 5 minutes to remove cellular debris. Unless stated otherwise, the resulting supernatant was filtered using a 0.2 μm syringe filter and either used immediately or frozen at −20° C. for later use. Cells were stained with Annexin V (AV) conjugated to APC or Pac Blue and either Sytox blue, Yoyo-1, or 7AAD (DNA binding dyes) for 15 minutes at room temperature in Annexin V binding buffer (BD). Flow cytometry was performed using the Attune NxT (Invitrogen), the FACS Calibur (BD), the LSR Fortessa (BD), or the LSRII (BD). Data were analyzed using FlowJo v.10 software. All independent experiment values shown are the average values of technical duplicates. ‘% Annexin V^+’ cells include Annexin V^+DNA dye^− and Annexin V^+DNA dye^+ cell populations.
# FADD-dependent apoptosis: CT26:FADD clones were incubated with 1 μg/ml doxycycline for 16 hours to induce expression of the construct. Doxycycline was washed away before addition of 10 nM B/B Homodimerizer for 5 hours to induce death. For Caspase inhibition studies, cells were incubated with 30 μM QVD for 1 hour prior to B/B administration and QVD was maintained in the media. […]
# OD600 measurements: 4 ml of supernatant or media controls were inoculated with 1-2×10^7 CFU/ml of the indicated bacterial species. Cultures were grown at 37° C. with 200 rpm agitation (aerobic) and bacterial growth was quantified by OD600 measurements using the Ultrospec 10 (VWR) at the indicated time points. […]
# (§2) CFU/ml values: 500 μl of supernatant or media controls were inoculated with 1×10^3 CFU of the indicated strain. Cultures were grown at 37° C. with 200 rpm agitation (aerobic) and growth was assessed at the indicated time by serially diluting with 1× PBS and plating onto LB agar (in vitro supernatants) or MacConkey agar (ex vivo primary colonocyte supernatants) to obtain CFU/ml values.
# Salmonella [3] = assay type: cell-based, Salmonella enterica serovar Typhimurium
# Protocol: Full length colons (from cecum to rectum) were excised from the indicated genotype of mice and cut open longitudinally to flay the colon open. Opened colons were vortexed 2-3 times in sterile 1× PBS to remove fecal content. Colons were then cut horizontally into 5-7 mm long pieces and incubated in DMEM +10% FBS and an antibiotic cocktail containing Ampicillin (100 μg/ml), Chloramphenicol (20 μg/ml), Kanamycin (50 μg/ml), and Streptomycin (100 μg/ml) for 2 hours at 37° C. with 5% CO2. Colonic pieces were then washed 3 times in sterile 1× PBS to remove any traces of the antibiotic cocktail. Individual colonic pieces were then incubated in 1.5 ml Eppendorf tubes containing 500 μl of DMEM+10% FBS+/−2 μM Stauro for 8 hours or +/−20 μg/ml Doxorubicin for 6 hours. For caspase inhibition, 30 μM QVD was added to the 2-hour antibiotic treatment step and was maintained throughout death induction. After death induction, colonic explants were spun at max speed for 5 minutes using a tabletop centrifuge and supernatant was collected. Unfiltered supernatant was used immediately or frozen −20° C. for subsequent use. […] All subsequent experiments (cell death, bacterial growth) utilized explants extracted from a minimum of 3 mice.
# as §2
# CT26 cells = experiment: Pyruvate concentration in CT26 supernatants; assay type: cell-based, murine; details: CT26 cells triggered with staurosporine
# Protocol: Shikonin: CT26 cells were pretreated with 5 μM Shikonin (or DMSO vehicle control) for 1 hour. Cells were then washed once with PBS before replacing with fresh media containing the indicated trigger of cell death +/−5 μM Shikonin.
# Metabolite detection: Pyruvate, formate, or fructose 1,6-bisphosphate concentrations were determined using the appropriate detection kit per the manufacturer's instructions. For these experiments, mammalian cells were cultured in DMEM without phenol red supplemented with 10% FBS.
# Salmonella [4] = experiment: Salmonella gene expression (qPCR) in mammalian cell supernatants; assay type: cell-based, Salmonella enterica serovar Typhimurium; details: apoptotic supernatants from CT26 and HCT116 cells
# Protocol: For all gene expression studies, bacterial cultures were grown to mid logarithmic growth phase (OD600=0.4−0.6), spun down at max speed, and then resuspended in TRIzol™ reagent (ThermoFisher) for immediate extraction or frozen at −80° C. Bacterial RNA was extracted and DNA removed as described using the RiboPure RNA Purification Kit (Thermo Fisher). For RNAseq experiments, ribosomal RNA was removed using Ribo-zero kits (Illumina). For all RNAseq data, sample groups were analyzed in quadruplicates and reads were mapped to the Salmonella Typhimurium SL1344 reference genome (ASM21085v2, EnsEMBL 39).
# qPCR: cDNA synthesis was performed using the SensiFast cDNA synthesis kit (GC Biotech). qPCR primers were designed using NCBI Primer Blast. The ΔΔCT values for each independent biological replicate were calculated twice, first using the Salmonella housekeeping gene gmk^55 and then the housekeeping gene strB^56 and the two ΔΔCT values were averaged. Relative fold expression was calculated such that the average of the indicated controls was equal to 1. The endogenous controls for HS E. coli samples were gmk and rpoA^57. All independent experiment values shown are the average values of technical duplicates.
# CT26:FADD cells = experiment: CT26:FADD cell death (flow cytometry); assay type: cell-based, murine
# Protocol: as §1
# FADD-dependent apoptosis: CT26:FADD clones were incubated with 1 μg/ml doxycycline for 16 hours to induce expression of the construct. Doxycycline was washed away before addition of 10 nM B/B Homodimerizer for 5 hours to induce death. […]
# Salmonella [5] = experiment: Salmonella infection after doxorubicin treatment in mice; assay type: in vivo, Salmonella enterica serovar Typhimurium; details: day 1 post-infection
# Protocol: Salmonella-induced colitis. Littermate, sex, and age-matched mice were infected using the Salmonella model of colitis^34. Specific pathogen free (SPF) mice were given a single dose of 20 mg streptomycin via oral gavage (100 μl of 200 mg/ml streptomycin dissolved in water) one day prior to infection. Mice were infected with 1×10^7 CFU per mouse resuspended in 1× PBS via oral gavage. For competitive infections, polar deletions containing the chromosomally inserted kanamycin resistance gene were used^56. Mice were infected with 1×10^7 CFU per strain per mouse, for a 2×10^7 CFU per mouse total inoculum in 100 μl. […] The input ratio of each strain was calculated by plating the infective dose on agar plates containing streptomycin (total inoculum) and agar plates containing streptomycin plus kanamycin (mutant strain). WT Salmonella was thus calculated as (total inoculum)−(mutant inoculum) and input ratio was calculated as (WT Salmonella)/(mutant Salmonella inoculum) with a desired input equal to 1. Mouse body weight was measured daily and ‘% body weight’ was calculated as (daily weight)/(day 0 starting weight). […] CFU per gram of tissue were calculated by plating serial dilutions of tissue homogenates on MacConkey agar containing streptomycin and MacConkey agar containing streptomycin and kanamycin. […]
# Enterobacteriaceae = experiment: Bacterial growth in media with or without Doxo; assay type: cell-based, Salmonella and E. coli (strain HS); details: 9 hours aerobic growth in media with or without Doxo
# Protocol: as §2
# C57BL/6 colonic explants = experiment: Caspase-3 activation in colonic explants (colorimetric assay); assay type: cell-based, mouse; details: 20 μg/ml Doxo, 6 hours ex vivo
# Protocol: Full length colons (from cecum to rectum) were excised from the indicated genotype of mice and cut open longitudinally to flay the colon open. Opened colons were vortexed 2-3 times in sterile 1× PBS to remove fecal content. Colons were then cut horizontally into 5-7 mm long pieces and incubated in DMEM +10% FBS and an antibiotic cocktail containing Ampicillin (100 μg/ml), Chloramphenicol (20 μg/ml), Kanamycin (50 μg/ml), and Streptomycin (100 μg/ml) for 2 hours at 37° C. with 5% CO2. Colonic pieces were then washed 3 times in sterile 1× PBS to remove any traces of the antibiotic cocktail. Individual colonic pieces were then incubated in 1.5 ml Eppendorf tubes containing 500 μl of DMEM+10% FBS+/−2 μM Stauro for 8 hours or +/−20 μg/ml Doxorubicin for 6 hours. For caspase inhibition, 30 μM QVD was added to the 2-hour antibiotic treatment step and was maintained throughout death induction. […]
# Caspase-3 activation: Following removal of the supernatant, explant pieces were assessed for caspase-3 activity via the Caspase-3 Colorimetric Activity Assay Kit, DEVD (Sigma) according to the manufacturer's instructions. Colorimetric values were obtained at 405 nm using the iMark™ microplate reader (BioRad) and arbitrary units were calculated from a standard curve using the provided pNA standard.
# [6] = system: endogenous Enterobacteriaceae; experiment: Endogenous Enterobacteriaceae burden in uninfected doxorubicin-treated mice; assay type: in vivo; details: uninfected C57BL/6 mice, 2 days post-treatment
# Protocol: (§3) Doxorubicin treatment. Doxorubicin was given as a single intraperitoneal (ip) injection at 15 mg/kg of mouse body weight while vehicle control (water) was given at similar volumes (approximately 300 μl volumes of water or 1 mg/ml Doxorubicin solution). The next day, mice were infected with 1×10^9 CFU of Salmonella (either single strain of competitive infections, as described above) or 1×10^9 CFU of E. coli. Tissues were harvested at day 1 post-infection and weight loss, total Salmonella burden, and competitive indices were calculated as above. Total Enterobacteriaceae burden, including E. coli, was assessed by plating tissue lysates on MacConkey agar without antibiotics. Uninfected controls were given 1× PBS via oral gavage instead of bacteria, and Endogenous Enterobacteriaceae burden was assessed by plating tissue lysates on MacConkey agar without antibiotics.
# [7] = Doxorubicin-induced gastrointestinal toxicity in mice; assay type: in vivo
# Protocol: as §3
# E. coli = E. coli infection after doxorubicin treatment in mice; assay type: in vivo; details: C57BL/6 mice; data not shown
# Protocol: as §3
# [8] = single ip 15 mg/kg, followed by oral infection
# [9] = uninfected mice, 2 days post-treatment
# Chain of membrane pannexin-1 channels (Q96RD7 whole entry): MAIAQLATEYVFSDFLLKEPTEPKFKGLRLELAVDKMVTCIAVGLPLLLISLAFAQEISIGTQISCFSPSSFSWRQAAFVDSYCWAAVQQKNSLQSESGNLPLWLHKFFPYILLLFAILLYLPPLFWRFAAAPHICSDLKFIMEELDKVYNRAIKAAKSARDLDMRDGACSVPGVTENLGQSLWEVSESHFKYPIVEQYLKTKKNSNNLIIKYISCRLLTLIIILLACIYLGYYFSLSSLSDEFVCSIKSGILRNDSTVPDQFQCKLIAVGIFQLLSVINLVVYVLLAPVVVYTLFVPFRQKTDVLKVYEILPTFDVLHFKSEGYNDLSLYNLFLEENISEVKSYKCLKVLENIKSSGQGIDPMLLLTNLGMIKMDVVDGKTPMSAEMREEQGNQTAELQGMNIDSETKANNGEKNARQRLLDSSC
structure (smiles),measurement,setting,value
"CC(=O)S[C@@H]1CC2=CC(=O)CC[C@]2(C)[C@H]2CC[C@@]3(C)[C@@H](CC[C@@]34CCC(=O)O4)[C@H]12 [spironolactone, Spironolactone]",membrane pannexin-1 channel inhibition,[1],membrane pannexin-I channel inhibitor
C=CCc1cccc(/C=N/NC(=O)CN2CCN(Cc3ccccc3)CC2)c1O [Pac-1],bacterial growth in supernatants from treated CT26 cells,"Salmonella [2]; 50 μM Pac-1 24 hours, OD600",enhanced bacterial growth
"CN[C@@H]1C[C@H]2O[C@@](C)([C@@H]1OC)n1c3ccccc3c3c4c(c5c6ccccc6n2c5c31)C(=O)NC4 [staurosporine, Staurosporine]",Salmonella growth in supernatants of apoptotic CT26 cells compared to control treatments,"Salmonella [2]; 1 μM staurosporine 24 hours, 9 hours aerobic growth",strongly induced Salmonella growth
same,Salmonella growth in apoptotic supernatants compared to live (vehicle-treated) colonocyte supernatants,"Salmonella [3]; C57BL/6 colonic explants, 2 μM Stauro 8 hours ex vivo, CFU after 9 hours aerobic growth",~10 fold
same,pyruvate released compared to live cell supernatants or fresh media controls,CT26 cells,significantly higher levels of pyruvate
same,Salmonella cadB expression,Salmonella [4],significantly increased the expression
same,Salmonella pflB expression,Salmonella [4],significantly increased the expression
N[C@@H]1[C@H]2CN(c3nc4c(cc3F)c(=O)c(C(=O)O)cn4-c3ccc(F)cc3F)C[C@@H]12 [Trovafloxacin],membrane pannexin-1 channel inhibition,[1],membrane pannexin-1 channel inhibitor
CC(C)[C@H](NC(=O)c1ccc2ccccc2n1)C(=O)N[C@@H](CC(=O)O)C(=O)COc1c(F)cccc1F [QVD],Salmonella growth in CT26:FADD supernatants with caspase inhibition,"Salmonella [2]; CT26:FADD cells treated with QVD, 8 hours aerobic growth",reduced Salmonella growth back to media and live cell supernatant controls
same,Salmonella growth in dying colonocyte supernatant with caspase inhibition,"Salmonella [3]; colonic explants treated with QVD and Stauro together, 30 μM QVD",restricted Salmonella growth to live supernatant control levels
same,cell death,"CT26:FADD cells; 30 μM QVD, 5 hours post-death induction with B/B dimerizer",reduced cell death
same,apoptotic caspase activation,"CT26:FADD cells; QVD, data not shown",reduced
CCCN(CCC)S(=O)(=O)c1ccc(C(=O)O)cc1 [Probenecid],membrane pannexin-1 channel inhibition,[1],membrane pannexin-1 channel inhibitor
C[C@H](Cn1cnc2c(N)ncnc21)OCP(=O)(O)O [Tenofovir],membrane pannexin-1 channel inhibition,[1],inhibit membrane pannexin-1 channels
COc1cccc2c1C(=O)c1c(O)c3c(c(O)c1C2=O)C[C@@](O)(C(=O)CO)C[C@@H]3O[C@H]1C[C@H](N)[C@H](O)[C@H](C)O1 [doxorubicin],bacterial burden following infection with Salmonella,Salmonella [5]; C57BL/6 mice,staggering increases in bacterial burden
same,WT Salmonella compared to ΔpflB mutant (competitive index),Salmonella [5]; control mice after doxorubicin treatment,significantly enriched
same,Salmonella outgrowth in supernatants of treated colonic explants,"Salmonella [3]; 20 μg/ml Doxo ex vivo, 9 hours aerobic growth",directly enhanced Salmonella outgrowth
same,direct action on bacterial growth (CFU),Enterobacteriaceae,direct antimicrobial action
same,caspase-3 activation,C57BL/6 colonic explants,induced caspase-3 activation
same,endogenous Enterobacteriaceae CFU,[6],potent expansion of the endogenous Enterobacteriaceae
same,cecal weight,[7]; [8],significant reduction in cecal weight
same,colon length,[7]; [8],shortening of the colon
same,caspase-3 activation in the ilea,[7]; [9],caspase-3 activation in the ilea
same,damage to ceca and colons,[7]; [9],sufficient to induce damage to the ceca and colons
same,bacterial burden following infection with E. coli,E. coli,staggering increases in bacterial burden
